Patent US6914045B2, “Glycopeptide antibiotics” (Wyeth Holdings Corporation, priority 2001, dated 2005)
≈ marks a conversion by molar mass, not a printed value.

Experiments:
Experiment in all cases: in vitro antibacterial evaluation, MIC by broth dilution
Format in all cases: cell-based
Escherichia coli = conditions: 18 hours at 35° C.
Summary of the method: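 Broth dilution in Muller-Hinton II medium per NCCLS standard M7-A2, with an inoculum of 5×10^5 CFU/mL and antibiotic tested over 64-0.06 μg/mL. MIC was taken as the lowest concentration inhibiting visible growth.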

Enterococcus sp. = conditions: broth dilution, 18 hours at 35° C.
Protocol: (§1) Methods for in vitro Antibacterial Evaluation (Table 1)
(§2) The minimum inhibitory concentration (MIC), the lowest concentration of the antibiotic which inhibits growth of the test organism, is determined by the broth dilution method using Muller-Hinton II […] (Baltimore Biological Laboratories) following the recommendations of the National Committee for Clinical Laboratory Standards [Methods for dilution antimicrobial susceptibility tests for bacteria that grow aerobically, approved standard M7-A2, National Committee for Clinical Laboratory Standards, Villanova, Pa.].
(§3) An inoculum level of 5×10^5 CFU/mL, and a range of antibiotic concentrations (64-0.06 μg/mL) is used. […] The test organisms include a spectrum of Gram-positive bacteria comprised of Staphylococcus sp., Streptococcus sp. and Enterococcus sp. These organisms include recent clinical isolates that are resistant to methicillin, penicillin and/or vancomycin.

Streptococcus sp. = conditions: broth dilution, 18 hours at 35° C.
Protocol: as §1, §2, §3

Staphylococcus sp. = conditions: broth dilution, 18 hours at 35° C.
Protocol: as §1, §2, §3

SMILES: CC(c1ccccc1)C1NC(=O)CNC(=O)C(CO)NC(=O)C(C(O)C2CNC(=N)N2C2OC(CO)C(O)C(O)C2O)NC(=O)C(C(O)C2CNC(=N)N2)NC(=O)C(Cc2ccc(OC3OC(COC(=O)C(c4ccccc4)c4ccccc4)C(OC4OC(CO)C(O)C(O)C4O)C(O)C3O)cc2)NC1=O (stereo not drawn) [Example 96b, Cyclo[glycyl-β-methylphenylalanyl-O-[6-O-(diphenylacetyl)-4-O-hexopyranosylhexopyranosyl]tyrosyl-3-(2-iminoimidazolidin-4-yl)seryl-3-(3-hexopyranosyl-2-iminoimidazolidin-4-yl)serylseryl]]
- MIC Escherichia coli (ATCC 25922) (Escherichia coli): >128 µg/mL
- MIC Enterococcus avium (GC 4558) (Enterococcus sp.; Enterococcus avium (GC 4558)): 4 µg/mL (≈ 2.69 µM)
- MIC Enterococcus faecalis (ATCC 29212) (Enterococcus sp.; Enterococcus faecalis (ATCC 29212)): 8 µg/mL (≈ 5.37 µM)
- MIC Enterococcus faecalis (GC 2242) (Enterococcus sp.; Enterococcus faecalis (GC 2242)): 4 µg/mL (≈ 2.69 µM)
- MIC Enterococcus faecalis (GC 4552) (Enterococcus sp.; Enterococcus faecalis (GC 4552)): 8 µg/mL (≈ 5.37 µM)
- MIC Enterococcus faecalis (GC 4553) (Enterococcus sp.; Enterococcus faecalis (GC 4553)): 8 µg/mL (≈ 5.37 µM)
- MIC Enterococcus faecalis (GC 4554) (Enterococcus sp.; Enterococcus faecalis (GC 4554)): 8 µg/mL (≈ 5.37 µM)
- MIC Enterococcus faecium (GC 2243) (Enterococcus sp.; Enterococcus faecium (GC 2243)): 8 µg/mL (≈ 5.37 µM)
- MIC Enterococcus faecium (GC 4556) (Enterococcus sp.; Enterococcus faecium (GC 4556)): 8 µg/mL (≈ 5.37 µM)
- MIC Enterococcus faecium (GC 4557) (Enterococcus sp.; Enterococcus faecium (GC 4557)): 1 µg/mL (≈ 0.671 µM)
- MIC Enterococcus avium (GC 4558) (Enterococcus sp.): 4 µg/mL (≈ 2.69 µM)
- MIC Enterococcus faecalis (ATCC 29212) (Enterococcus sp.): 8 µg/mL (≈ 5.37 µM)
- MIC Enterococcus faecalis (GC 2242) (Enterococcus sp.): 4 µg/mL (≈ 2.69 µM)
- MIC Enterococcus faecalis (GC 4552) (Enterococcus sp.): 8 µg/mL (≈ 5.37 µM)
- MIC Enterococcus faecalis (GC 4553) (Enterococcus sp.): 8 µg/mL (≈ 5.37 µM)
- MIC Enterococcus faecalis (GC 4554) (Enterococcus sp.): 8 µg/mL (≈ 5.37 µM)
- MIC Enterococcus faecium (GC 2243) (Enterococcus sp.): 8 µg/mL (≈ 5.37 µM)
- MIC Enterococcus faecium (GC 4556) (Enterococcus sp.): 8 µg/mL (≈ 5.37 µM)
- MIC Enterococcus faecium (GC 4557) (Enterococcus sp.): 1 µg/mL (≈ 0.671 µM)
- MIC Streptococcus agalactiae (GC 4564) (Streptococcus sp.; Streptococcus agalactiae (GC 4564)): 0.25 µg/mL (≈ 0.168 µM)
- MIC Streptococcus pneumoniae (GC 4565) (Streptococcus sp.; Streptococcus pneumoniae (GC 4565)): <0.12 µg/mL
- MIC Streptococcus pyogenes (ID-3187) (Streptococcus sp.; Streptococcus pyogenes (ID-3187)): 0.25 µg/mL (≈ 0.168 µM)
- MIC Streptococcus agalactiae (GC 4564) (Streptococcus sp.): 0.25 µg/mL (≈ 0.168 µM)
- MIC Streptococcus pneumoniae (GC 4565) (Streptococcus sp.): <0.12 µg/mL
- MIC Streptococcus pyogenes (ID-3187) (Streptococcus sp.): 0.25 µg/mL (≈ 0.168 µM)
- MIC Coagulase Negative Staphylococcus (GC 4547) (Staphylococcus sp.): 1 µg/mL (≈ 0.671 µM)
- MIC Coagulase Negative Staphylococcus (GC 4548) (Staphylococcus sp.): 0.5 µg/mL (≈ 0.336 µM)
- MIC Coagulase Negative Staphylococcus (GC 4549) (Staphylococcus sp.): 0.5 µg/mL (≈ 0.336 µM)
- MIC Coagulase Negative Staphylococcus (GC 4551) (Staphylococcus sp.): 2 µg/mL (≈ 1.34 µM)
- MIC Coagulase Negative Staphylococcus (ID-3941) (Staphylococcus sp.): 0.5 µg/mL (≈ 0.336 µM)
- MIC Staphylococcus aureus-SMITH (GC 4543) (Staphylococcus sp.): 2 µg/mL (≈ 1.34 µM)
- MIC Staphylococcus haemolyticus (GC 4546) (Staphylococcus sp.): 1 µg/mL (≈ 0.671 µM)
- MIC Staphylococcus haemolyticus (GC 4546) (Staphylococcus sp.; strain GC 4546): 1 µg/mL (≈ 0.671 µM)
- MIC Coagulase Negative Staphylococcus (GC 4547) (Staphylococcus sp.; strain GC 4547): 1 µg/mL (≈ 0.671 µM)
- MIC Coagulase Negative Staphylococcus (GC 4548) (Staphylococcus sp.; strain GC 4548): 0.5 µg/mL (≈ 0.336 µM)
- MIC Coagulase Negative Staphylococcus (GC 4549) (Staphylococcus sp.; strain GC 4549): 0.5 µg/mL (≈ 0.336 µM)
- MIC Coagulase Negative Staphylococcus (GC 4551) (Staphylococcus sp.; strain GC 4551): 2 µg/mL (≈ 1.34 µM)
- MIC Coagulase Negative Staphylococcus (ID-3941) (Staphylococcus sp.; strain ID-3941): 0.5 µg/mL (≈ 0.336 µM)
- MIC Staphylococcus aureus-SMITH (GC 4543) (Staphylococcus sp.; strain SMITH GC 4543): 2 µg/mL (≈ 1.34 µM)
- MIC Staphylococcus aureus (ATCC 29213) (Staphylococcus sp.; strain ATCC 29213): 1 µg/mL (≈ 0.671 µM)
- MIC Staphylococcus aureus (GC 1131) (Staphylococcus sp.; strain GC 1131): 2 µg/mL (≈ 1.34 µM)
- MIC Staphylococcus aureus (GC 4541) (Staphylococcus sp.; strain GC 4541): 1 µg/mL (≈ 0.671 µM)
- MIC Staphylococcus aureus (GC 4542) (Staphylococcus sp.; strain GC 4542): 2 µg/mL (≈ 1.34 µM)
- MIC Staphylococcus aureus (GC 4544) (Staphylococcus sp.; strain GC 4544): 2 µg/mL (≈ 1.34 µM)
- MIC Staphylococcus aureus (GC 4545) (Staphylococcus sp.; strain GC 4545): 1 µg/mL (≈ 0.671 µM)
